The data set is described as follows: Plasma concentration of infused peptides by radioimmunoassay.

No end group written: not given here.

A word on the Cmax: it is the highest concentration seen after dosing. In the case of “SWKPRSQQPDAPLGTGANR [progastrin fragment 1‐19]”, the “Plasma concentration relative to that of progastrin fragment 1‐35 in experiment D” value (fragment 1‐19 at t150 in part F versus fragment 1‐35 in part D) is recorded as “half”. Also, the Cmax (human, plasma, iv, 268 pmol/kg/h, SEM) worked out at 0.43 ± 0.0899 nM.

Values taken from publication PMC5350173, “Acute effects of N‐terminal progastrin fragments on gastric acid secretion in man” (Physiological Reports, 2017).
